Test results published in patent US4454341A, “Naphthyl or tetrahydronaphthyl-substituted naphthoic acid and derivatives” (SRI International, priority 1983, dated 1984).

What was measured:
[1] = tested on: Hamster Tracheal Organ Culture (keratinization); assay: Tracheal organ culture assay (reversal of keratinization); assay type: cell-based; details: 10 days in culture
Description: (§1) The ODC assay measures a compound's ability to prevent the induction of ODC. The tracheal organ culture assay measures a compound's ability to reverse keratinization.
The tracheal organ culture assay is carried out as follows. Tracheas are taken from hamsters that are in very early stages of vitamin A deficiency and placed in organ culture. At the time of culture, the animals are still gaining weight; the tracheal epithelium is generally low columnar or cuboidal, with only occasional patches of squamous metaplasia. Each trachea is opened from the larynxto the carina along the membranous dorsal wall and cultured in a serum-free medium (CMRL-1066; with crystalline bovine insulin, 0.1 μg/ml; hydrocortisone hemisuccinate, 0.1 μg/ml; glutamine, 2 mM; penicillin, 100 units/ml; and streptomycin, 100 μg/ml, added). Cultures are gassed with 50% oxygen, 45% nitrogen, and 5% CO2. The culture dishes are rocked at 35.5-36.0 degrees to allow the tracheas contact with both gas and medium. All tracheas are grown in medium containing no retinoid for the first 3 days. At the end of 3 days, some tracheas are harvested; almost all of these tracheas have significant squamous metaplasia, and approximately 60% have keratinized lesions. The remaining tracheas are then divided into different groups which are treated with either: (1) retinoid dissolved in dimethylsulfoxide (final concentration of DMSO in culture medium is never greater than 0.1%) or (2) an equivalent amount of DMSO alone. Culture medium is changed three times a week, and all of the remaining tracheas are harvested at the end of 10 days in culture. Tracheas are fixed in 10% buffered formalin and embedded in paraffin. Cross sections of five micrometers are made through the mid-portion, stained with hematoxylin and eosin, and then scored with a microscope for the presence of keratin and keratohyaline granules, both of which are found in approximately 90% of control cultures that received no retinoid for the entire 10 day culture period.

Ornithine Decarboxylase = assay: Ornithine decarboxylase (ODC) assay: inhibition of TPA induction of ODC in mouse skin; assay type: in vivo, mouse (female Charles River CD-1); details: topical, 1 hour before TPA (17 nmol)
Description: as §1
The ODC assay is carried out as follows. Female Charles River CD-1 mice from Charles River Breeding Laboratories, Wilmington, Mass., are used (age 7 to 9 weeks). The dorsal hair of the mice is shaved 1 to 2 days before testing, and only mice showing no hair regrowth are used. A single dose of 12-O-tetradecanoylphorbol-13-acetate (TPA) (10.5 μg, 17 nmol) in 0.2 mL of acetone is applied topically to the back of each mouse. The test compound, at one of three dose levels (1.7, 17 and 170 nmol), dissolved in 0.2 mL of acetone is applied 1 hour before the TPA treatment to the test groups; the control group is treated with acetone alone. The mice are killed by cervical dislocations five hours after TPA treatment. Determinations are done in triplicate.
The epidermis is obtained from the sacrificed animals. To obtain sufficient material, the dorsal skins from 2 to 3 mice in each treatment group are pooled. The depilatory agent Nudit® (Helena Rubinstein, N.Y.) is applied to the shaved area of the skin; after 5 minutes, it is washed off thoroughly with cold tap water. Then the skin is excised and plunged immediately into ice-cold water; it is then placed in a 55° C. water bath for 30 seconds and reimmersed in ice-cold water for at least another 30 seconds. The skin is placed epidermis side up on a cold plate, and the epidermis is scraped off with a razor blade. The pooled epidermal sheets are homogenized (Polytron PT-10 homogenizer) at 0° to 4° C. for 15-20 seconds in 50 mM sodium phosphate and 0.1 mM ethylenediaminetetraacetic acid (EDTA), at a volume of 1 mL/skin.
The supernatant fraction remaining after centrifugation of the homogenate at 10,000×g for 30 seconds at 0° C. is used for the enzyme assay. Enzyme activity is determined using the microassay for ODC as described by Verma and Boutwell to measure the release of ^14 CO2 from DL-[1-^14 C]-ornithine (58 mCi/mmol) after incubation with the 10,000×g supernatant. The incubations are carried out by decanting, with a Pasteur pipette, 100 μL of the supernatant containing 100 to 120 μg of protein into two or three 15-mL Corex tubes in a shaking water bath at 37° C. The assay mixture in the tubes consists of 50 μL of 100 mM sodium phosphate buffer (pH 7.2), 10 μL of 4 mM pyridoxal phosphate, 40 μL of 25 mM dithiothreitol, and 1 μL of 0.1 M EDTA. The center wells in the tubes are filled with 200 μL of a 2:1 solution (v/v) of ethanolamine:2-methoxyethanol. The reaction is started by adding 50 μL of substrate (0.5 μCi of DL-[1-^14 C]-ornithine in 2 mM cold ornithine) at 1-minute intervals by injection to each of the stoppered tubes. Incubations are routinely carried out at 37° C. for 30 to 60 minutes. The reaction is stopped by addition of 0.5 ml of 2M citric acid, and incubation is continued for an additional hour without heating to ensure complete absorption of ^14 CO2.
Radioactivity is measured using a toluene-based scintillant (4 g of PPO and 50 mg of POPOP/L of toluene) in a Beckman LS-250 liquid scintillation counter. Enzyme activity is determined in triplicate and expressed as nanomoles of CO2 released in 30 minutes per milligram of protein. Enzyme activity is linear for the protein concentration used. The protein concentrations of the epidermal extracts are determined by the Lowry procedure, using bovine serum albumin as the standard.

[2] = tested on: ornithine decarboxylase (ODC); details: literature, copending application or unpublished data; cited from earlier work

With `CC1(C)CCC(C)(C)c2cc(-c3ccc4cc(C(=O)O)ccc4c3)ccc21` [6-(1,2,3,4-Tetrahydro-1,1,4,4-tetramethyl-6-naphthyl)-2-naphthoic acid] the “Reversal of Keratinization in Hamster Tracheal Organ Culture, Active Cultures (%)” value (“Reversal of Keratinization … (%)” below) ([1]; Conc 10^-9 M) was 100%, the “Reversal of Keratinization in Hamster Tracheal Organ Culture, Active/Total Cultures” value (“Reversal … Active/Total Cultures” below) ([1]; Conc 10^-9 M) was 7/7 and the “Reversal of Keratinization … (%)” value ([1]; Conc 10^-10 M) was 100%. The “Reversal … Active/Total Cultures” value ([1]; Conc 10^-10 M) was 7/7, the “Reversal of Keratinization … (%)” value ([1]; Conc 10^-11 M) was 71% and the “Reversal … Active/Total Cultures” value ([1]; Conc 10^-11 M) was 5/7. For the same compound, the “Inhibition of Induction of Ornithine Decarboxylase by 12-O-Tetradecanoylphorbol-13-acetate in Mouse Skin, % Inhibition of Control” value (from here on “Inhibition … % Inhibition of Control”) (Ornithine Decarboxylase; Dose 1.7 nmol) was 56% and the “Inhibition … % Inhibition of Control” value (Ornithine Decarboxylase; Dose 17 nmol) was 80%.
In the case of `CC1=C(C=Cc2ccc3cc(C(=O)O)ccc3c2)C(C)(C)CCC1` [6-[2-(2,6,6-trimethyl-1-cyclohexen-1-yl)ethenyl]-2-naphthoic acid], the “activity in the ODC assay (in words)” value [2] is listed as “exhibited activity in the ODC assay”.
For `CCOC(=O)c1ccc(/C=C(\C)c2ccc3c(c2)C(C)(C)CCC3(C)C)cc1` [Ethyl 4-[(E)-2-(1,2,3,4-tetrahydro-1,1,4,4-tetramethyl-6-naphthyl)-1-propen-1-yl]benzoate], the “Inhibition … % Inhibition of Control” value (Ornithine Decarboxylase; Dose 1.7 nmol) is given as 86%, the “Inhibition … % Inhibition of Control” value (Ornithine Decarboxylase; Dose 17 nmol) is given as 86% and the “activity in the ODC assay (in words)” value [2] is given as “exhibits activity in the ODC assay”.
For `CCOC(=O)c1ccc2cc(-c3ccc4c(c3)C(C)(C)CCC4(C)C)ccc2c1` [Ethyl 6-(1,2,3,4-tetrahydro-1,1,4,4-tetramethyl-6-naphthyl)-2-naphthoate], the “Inhibition … % Inhibition of Control” value (Ornithine Decarboxylase; Dose 1.7 nmol) was 50% and the “Inhibition … % Inhibition of Control” value (Ornithine Decarboxylase; Dose 17 nmol) was 75%.
For `CC1=C(/C=C/C(C)=C/C=C/C(C)=C/C(=O)O)C(C)(C)CCC1` [Retinoic Acid], the “Reversal of Keratinization … (%)” value ([1]; Conc 10^-8 M) was 100%, the “Reversal … Active/Total Cultures” value ([1]; Conc 10^-8 M) was 236/236 and the “Reversal of Keratinization … (%)” value ([1]; Conc 10^-9 M) was 88%. The “Reversal … Active/Total Cultures” value ([1]; Conc 10^-9 M) was 419/474, the “Reversal of Keratinization … (%)” value ([1]; Conc 10^-10 M) was 52% and the “Reversal … Active/Total Cultures” value ([1]; Conc 10^-10 M) was 134/256. The “Inhibition … % Inhibition of Control” value (Ornithine Decarboxylase; Dose 17 nmol) was 87-91%.
